Source: ChEMBL document CHEMBL3352376, “Amine substitution of quinazolinones leads to selective nanomolar AChE inhibitors with 'inverted' binding mode” (Bioorg Med Chem, 2014)
pIC50, pKi: −log10 of the molar value. “And” between values parts separate entries of the source, which are not always exact repeats. Equal values may be shown once. The source made the active and inactive calls. The rule behind the calls is not given here.

How the values were obtained:
[1] = biological target: Acetylcholinesterase (Electrophorus electricus, UniProt O42275)
[2] = biological target: Cholinesterase (Equus caballus, UniProt P81908)
[3] = biological target: T1, Acetylcholinesterase (Homo sapiens, UniProt P22303); assay: Inhibition of human AChE at 100 uM
[4] = biological target: Acetylcholinesterase (Electrophorus electricus) (UniProt O42275); assay: Inhibition of electric eel AChE at 50 uM
[5] = biological target: Cholinesterase (Equus caballus) (UniProt P81908); assay: Inhibition of equine serum BChE at 50 uM
[6] = biological target: T1, Acetylcholinesterase
[7] = biological target: Histamine H3 receptor (Homo sapiens, UniProt Q9Y5N1); assay: Inhibition of human H3 receptor
Histamine H3 receptor, sequence (Q9Y5N1 whole entry): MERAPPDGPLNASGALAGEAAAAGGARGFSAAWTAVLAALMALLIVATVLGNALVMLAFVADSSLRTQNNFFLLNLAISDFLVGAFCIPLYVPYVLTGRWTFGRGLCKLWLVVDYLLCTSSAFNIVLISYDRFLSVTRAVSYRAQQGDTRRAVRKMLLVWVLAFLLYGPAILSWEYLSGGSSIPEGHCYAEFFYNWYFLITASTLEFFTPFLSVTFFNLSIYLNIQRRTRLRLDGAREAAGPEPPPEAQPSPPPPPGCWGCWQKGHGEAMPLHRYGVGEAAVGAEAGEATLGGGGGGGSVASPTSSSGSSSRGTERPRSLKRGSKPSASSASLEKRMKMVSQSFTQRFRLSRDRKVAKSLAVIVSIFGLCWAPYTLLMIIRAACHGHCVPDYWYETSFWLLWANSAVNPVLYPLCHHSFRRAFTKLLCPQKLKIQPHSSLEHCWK

Cholinesterase, sequence (P81908 whole entry): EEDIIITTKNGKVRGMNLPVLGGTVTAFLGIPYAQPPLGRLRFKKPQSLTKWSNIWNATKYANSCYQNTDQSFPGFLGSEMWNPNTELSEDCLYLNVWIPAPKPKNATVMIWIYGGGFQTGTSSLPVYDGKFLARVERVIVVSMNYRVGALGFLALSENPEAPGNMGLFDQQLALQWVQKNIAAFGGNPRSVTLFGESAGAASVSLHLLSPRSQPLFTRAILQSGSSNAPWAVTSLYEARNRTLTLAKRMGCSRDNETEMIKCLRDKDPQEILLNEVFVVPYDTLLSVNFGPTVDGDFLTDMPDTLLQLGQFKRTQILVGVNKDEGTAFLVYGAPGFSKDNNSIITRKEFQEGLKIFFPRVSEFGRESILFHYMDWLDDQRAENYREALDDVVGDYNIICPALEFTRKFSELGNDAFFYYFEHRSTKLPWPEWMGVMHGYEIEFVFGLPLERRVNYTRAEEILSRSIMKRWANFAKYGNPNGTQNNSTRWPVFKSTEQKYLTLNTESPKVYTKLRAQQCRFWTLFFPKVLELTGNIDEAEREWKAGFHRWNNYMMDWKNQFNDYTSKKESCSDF
T1 sequence (P22303 whole entry): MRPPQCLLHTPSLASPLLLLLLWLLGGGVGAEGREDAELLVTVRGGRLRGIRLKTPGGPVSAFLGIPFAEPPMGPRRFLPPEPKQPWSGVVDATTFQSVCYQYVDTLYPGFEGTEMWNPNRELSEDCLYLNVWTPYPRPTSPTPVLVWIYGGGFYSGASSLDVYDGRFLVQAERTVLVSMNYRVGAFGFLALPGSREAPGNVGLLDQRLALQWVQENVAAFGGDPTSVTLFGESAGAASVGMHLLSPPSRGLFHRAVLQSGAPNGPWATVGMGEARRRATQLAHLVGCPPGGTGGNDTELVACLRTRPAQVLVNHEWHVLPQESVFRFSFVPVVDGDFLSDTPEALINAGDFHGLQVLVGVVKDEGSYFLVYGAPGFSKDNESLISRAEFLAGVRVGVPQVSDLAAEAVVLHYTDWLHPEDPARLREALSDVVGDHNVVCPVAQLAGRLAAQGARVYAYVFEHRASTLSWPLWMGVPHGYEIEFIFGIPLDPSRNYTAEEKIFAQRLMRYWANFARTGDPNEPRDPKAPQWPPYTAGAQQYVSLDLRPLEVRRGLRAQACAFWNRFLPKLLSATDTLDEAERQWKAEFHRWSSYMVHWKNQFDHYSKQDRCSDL
Acetylcholinesterase (Electrophorus electricus, UniProt O42275), sequence (O42275 whole entry): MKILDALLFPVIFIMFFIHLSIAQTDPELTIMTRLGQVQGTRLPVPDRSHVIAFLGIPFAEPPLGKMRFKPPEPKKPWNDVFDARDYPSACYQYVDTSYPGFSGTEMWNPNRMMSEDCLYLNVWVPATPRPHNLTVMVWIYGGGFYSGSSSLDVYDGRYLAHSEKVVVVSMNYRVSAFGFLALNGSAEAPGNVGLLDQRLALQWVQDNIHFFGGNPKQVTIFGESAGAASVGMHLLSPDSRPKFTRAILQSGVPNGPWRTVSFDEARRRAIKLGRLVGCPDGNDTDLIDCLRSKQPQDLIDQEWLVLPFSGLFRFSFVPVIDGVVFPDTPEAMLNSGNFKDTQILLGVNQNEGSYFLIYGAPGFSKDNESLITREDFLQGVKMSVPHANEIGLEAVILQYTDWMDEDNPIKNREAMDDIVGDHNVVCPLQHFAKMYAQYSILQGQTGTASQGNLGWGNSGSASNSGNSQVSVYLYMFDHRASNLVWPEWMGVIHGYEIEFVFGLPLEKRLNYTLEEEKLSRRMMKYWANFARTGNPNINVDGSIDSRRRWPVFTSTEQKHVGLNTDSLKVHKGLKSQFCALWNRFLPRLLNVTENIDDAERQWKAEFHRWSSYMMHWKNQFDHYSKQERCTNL
Cholinesterase (Equus caballus), sequence (P81908 whole entry): as the sequence (P81908 whole entry) above
Acetylcholinesterase (Electrophorus electricus), sequence (O42275 24-633 limits assumed): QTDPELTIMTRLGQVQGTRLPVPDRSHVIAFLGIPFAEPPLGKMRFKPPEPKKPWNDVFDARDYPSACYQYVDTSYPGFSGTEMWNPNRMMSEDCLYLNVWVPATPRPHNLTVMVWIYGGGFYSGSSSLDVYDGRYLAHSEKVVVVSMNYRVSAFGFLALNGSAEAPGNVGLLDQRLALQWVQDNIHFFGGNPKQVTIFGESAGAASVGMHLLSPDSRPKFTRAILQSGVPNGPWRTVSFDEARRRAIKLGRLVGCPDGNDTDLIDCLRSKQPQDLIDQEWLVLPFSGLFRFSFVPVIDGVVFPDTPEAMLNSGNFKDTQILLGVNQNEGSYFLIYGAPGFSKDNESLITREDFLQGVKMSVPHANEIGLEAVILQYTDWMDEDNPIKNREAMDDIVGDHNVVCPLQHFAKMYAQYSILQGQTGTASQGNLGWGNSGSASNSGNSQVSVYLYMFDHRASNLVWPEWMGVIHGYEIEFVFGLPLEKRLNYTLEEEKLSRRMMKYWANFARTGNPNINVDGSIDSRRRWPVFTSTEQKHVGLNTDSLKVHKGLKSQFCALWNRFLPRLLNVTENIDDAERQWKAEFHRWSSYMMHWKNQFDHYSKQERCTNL

Compound	pIC50 [1]	pIC50 [2]	pIC50 [6]	other results
O=c1c2cc(OCCCN3CCc4ccccc4C3)ccc2nc2n1CCC2	6.06	6.11		
O=c1c2cc(OCCCC3CCCCC3)ccc2nc2n1Cc1ccccc1-2				inhibition [3]: 35%; inhibition [4]: 34%; inhibition [5]: inactive
O=c1c2cc(OCCCn3ccnc3)ccc2nc2n1CCC2	5.72	4.83		
O=c1c2cc(OCCCN3CCCCCC3)ccc2nc2n1Cc1ccccc1-2	8.30	5.73		
O=c1c2cc(OCCCN3CCCCCC3)ccc2nc2n1CCCC2	7.23	5.75 and 5.57		
CCN(CC)CCCOc1ccc2nc3n(c(=O)c2c1)Cc1ccccc1-3	7.96	5.73	6.70	
O=c1c2cc(OCCCN3CCc4ccccc4C3)ccc2nc2n1CCCc1ccccc1-2	5.92	5.74		
O=c1c2cc(OCCCn3ccnc3)ccc2nc2n1CCCCC2	5.40	4.22		
O=c1c2cc(OCCCN3CCCC3)ccc2nc2n1Cc1ccccc1-2	7.79	5.62		
O=c1c2cc(OCCCn3ccnc3)ccc2nc2n1CCCC2	5.37	4.30 and 4.23		
O=c1c2cc(OCCCN3CCCCC3)ccc2nc2n1Cc1ccccc1-2	8.16		6.84 and 6.85	
O=c1c2cc(OCCCN3CCCCC3)ccc2nc2n1CCCCC2	7.37	4.90	6.09	
O=c1c2cc(OCCCN3CCCC3)ccc2nc2n1CCC2	7.30	4.98		
O=c1c2cc(OCCCN3CCc4ccccc4C3)ccc2nc2n1Cc1ccccc1-2	6.64	5.76		
O=c1c2cc(OCCCN3CCCCC3)ccc2nc2n1CCC2	7.16	3.91	5.96	
O=c1c2cc(OCCCN3CCc4ccccc4C3)ccc2nc2n1CCCC2	6.14	5.26		
O=c1c2cc(OCCCN3CCCCCC3)ccc2nc2n1CCc1ccccc1-2	7.89	6.23		
O=c1c2cc(OCCCn3ccnc3)ccc2nc2n1CCCc1ccccc1-2	4.99	4.28	4.25	
O=c1c2cc(OCCCn3ccnc3)ccc2nc2n1CCc1ccccc1-2	5.61	5.06		
CCN(CC)CCCOc1ccc2nc3n(c(=O)c2c1)CCc1ccccc1-3	7.32	5.67	6.17	

Compound	pIC50 [1]	pIC50 [2]	pIC50 [6]	other results
O=c1c2cc(OCCCN3CCCC3)ccc2nc2n1CCCc1ccccc1-2	6.28	5.44		
O=c1c2cc(OCCCN3CCCCCC3)ccc2nc2n1CCCc1ccccc1-2	7.27	6.06		
O=c1c2cc(OCCCN3CCCC3)ccc2nc2n1CCCC2	6.68	4.79		
O=c1c2cc(OCCCN3CCc4ccccc4C3)ccc2nc2n1CCc1ccccc1-2	6.20	5.74		
O=c1c2cc(OCCCN3CCCCC3)ccc2nc2n1CCc1ccccc1-2	8.26	6.02	6.66 and 6.67	
O=c1c2cc(OCCCN3CCCCCC3)ccc2nc2n1CCC2	7.30	5.28		
O=c1c2cc(OCCCN3CCCCC3)ccc2nc2n1CCCc1ccccc1-2	7.24	5.57	6.27	
O=c1c2cc(OCCCN3CCCCC3)ccc2nc2n1CCCC2	7.48	5.18	6.65	
CCN(CC)CCCOc1ccc2nc3n(c(=O)c2c1)CCCc1ccccc1-3	7.14	5.29	5.38	
CCN(CC)CCCOc1ccc2nc3n(c(=O)c2c1)CCCC3	7.37	5.04	5.82	
CCN(CC)CCCOc1ccc2nc3n(c(=O)c2c1)CCC3	7.00	6.08	5.92	
CCN(CC)CCCOc1ccc2nc3n(c(=O)c2c1)CCCCC3	7.30	4.97	4.92	
O=c1c2cc(OCCCn3ccnc3)ccc2nc2n1Cc1ccccc1-2	6.34	5.04		
O=c1c2cc(OCCCCCCCCCN3CCCCC3)ccc2nc2n1CCC2	6.41	5.07		
O=c1c2cc(OCCCN3CCc4ccccc4C3)ccc2nc2n1CCCCC2	6.19	5.52		
O=c1c2cc(OCCCN3CCCC3)ccc2nc2n1CCc1ccccc1-2	7.04			
O=c1c2cc(OCCCN3CCCCCC3)ccc2nc2n1CCCCC2	7.41	5.74		
c1cc2c(cc1OCCCN1CCCCC1)CN1CCCC1=N2	7.18		7.47	pKi [7]: 7.12
O=c1c2cc(OCCCN3CCCC3)ccc2nc2n1CCCCC2	6.53	4.91		
